Data taken from patent US20120321565A1, “PHARMACEUTICAL COMPOSITIONS COMPRISING 17ALPHA-FURANYLESTERS OF 17BETA-CARBOTHIATE ANDROSTANES WITH A MUSCARINIC RECEPTOR ANTAGONIST” (GlaxoSmithKline Intellectual Property Management Limited, priority 2002, published 2012).

Tests used:
[1] = Pharmacokinetics after intravenous administration in the anaesthetised pig; format: in vivo; settings: for clearance, compound (I) vs fluticasone propionate (in words): intravenous 0.1 mg/kg; for pharmacokinetic parameters, compound (I) vs fluticasone propionate (in words): intravenous mixture of the two compounds at 0.1 mg/kg
Text: The clearance of these two glucocorticoids is similar is this experimental pig model.

NFκB = assay: Transrepression (NFκB): firefly luciferase NFκB reporter in TNFα-stimulated A549 cells; format: cell-based; settings: Homo sapiens, TNFα 0.5 ng/ml, read-out: Transrepression (NFκB) ED50
Text: The glucocorticoid receptor (GR) can function in at least two distinct mechanisms, by upregulating gene expression through the direct binding of GR to specific sequences in gene promotors, and by downregulating gene expression that is being driven by other transcription factors (such as NFκB or AP-1) through their direct interaction with GR.
The first cell line contains the firefly luciferase reporter gene under the control of a synthetic promoter that specifically responds to activation of the transcription factor NFκB when stimulated with TNFα. The second cell line contains the renilla luciferase reporter gene under the control of a synthetic promotor that comprises 3 copies of the consensus glucocorticoid response element, and which responds to direct stimulation by glucocorticoids. Simultaneous measurement of transactivation and transrepression was conducted by mixing the two cell lines in a 1:1 ratio in 96 well plate (40,000 cells per well) and growing overnight at 37° C. Test compounds were dissolved in DMSO, and added to the cells at a final DMSO concentration of 0.7%. After incubation for 1 h 0.5 ng/ml TNFα (R&D Systems) was added and after a further 15 hours at 37° C., the levels of firefly and renilla luciferase were measured using the Packard Firelite kit following the manufacturers' directions. Dose response curves were constructed from which EC50 values were determined.

glucocorticoid receptor = biological target: T1, glucocorticoid receptor (Homo sapiens, UniProt P04150); assay: In vitro functional glucocorticoid assays (metabolite vs parent); format: cell-based
T1 sequence (P04150 1-777): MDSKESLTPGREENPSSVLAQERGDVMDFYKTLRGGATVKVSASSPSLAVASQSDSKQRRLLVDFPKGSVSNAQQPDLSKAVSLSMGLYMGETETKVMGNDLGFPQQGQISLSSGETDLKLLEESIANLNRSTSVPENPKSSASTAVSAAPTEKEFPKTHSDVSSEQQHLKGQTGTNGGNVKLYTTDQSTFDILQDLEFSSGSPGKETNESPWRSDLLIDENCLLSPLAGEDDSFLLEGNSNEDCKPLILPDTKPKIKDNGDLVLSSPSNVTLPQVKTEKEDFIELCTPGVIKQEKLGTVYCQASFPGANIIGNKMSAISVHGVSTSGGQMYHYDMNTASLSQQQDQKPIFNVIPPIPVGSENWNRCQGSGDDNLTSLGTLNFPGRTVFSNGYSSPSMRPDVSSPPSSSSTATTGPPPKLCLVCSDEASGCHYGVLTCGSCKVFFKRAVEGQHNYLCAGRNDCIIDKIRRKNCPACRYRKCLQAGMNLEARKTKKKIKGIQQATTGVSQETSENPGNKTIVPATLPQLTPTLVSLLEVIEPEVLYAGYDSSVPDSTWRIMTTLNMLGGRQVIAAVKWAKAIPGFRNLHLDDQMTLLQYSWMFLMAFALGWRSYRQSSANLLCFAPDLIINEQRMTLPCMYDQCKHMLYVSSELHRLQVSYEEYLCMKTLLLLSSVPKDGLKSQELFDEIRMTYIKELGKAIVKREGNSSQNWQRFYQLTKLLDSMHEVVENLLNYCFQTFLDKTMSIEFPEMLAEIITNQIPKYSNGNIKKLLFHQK
Text: Compound (I) undergoes highly efficient hepatic metabolism to yield the 17-β carboxylic acid (X) as the sole major metabolite in rat and human in vitro systems.

SMILES | clearance, compound (I) vs fluticasone propionate (in words) [1] | pharmacokinetic parameters, compound (I) vs fluticasone propionate (in words) [1] | EC50 (NFκB) [nM] | fold less active than the parent compound (glucocorticoid receptor) [fold]
CCC(=O)O[C@]1(C(=O)SCF)[C@H](C)C[C@H]2[C@@H]3C[C@H](F)C4=CC(=O)C=C[C@]4(C)[C@@]3(F)[C@@H](O)C[C@@]21C [Fluticasone propionate, 6α, 9α-Difluoro-17α-(1-oxopropoxy)-11β-hydroxy-16α-methyl-3-oxo-androsta-1,4-diene-17β-carbothioic acid S-fluoromethyl ester, reference compound] | similar | the same |  | 
C[C@@H]1CC2C3C[C@H](F)C4=CC(=O)C=C[C@]4(C)[C@@]3(F)[C@@H](O)C[C@]2(C)[C@@]1(OC(=O)c1ccco1)C(=O)SCF (stereo partly drawn) [Compound of Formula (I), 6α, 9α-Difluoro-17α-[(2-furanylcarbonyl)oxy]-11β-hydroxy-16α-methyl-3-oxo-androsta-1,4-diene-17β-carbothioic acid S-fluoromethyl ester] | similar | the same |  | 
C[C@@H]1CC2C3C[C@H](F)C4=CC(=O)C=C[C@]4(C)[C@@]3(F)[C@@H](O)C[C@]2(C)[C@@]1(OC(=O)c1ccco1)C(=O)O (stereo partly drawn) [Metabolite (X)] |  |  | > 1000 | > 1000
